{"source": "patent US7629364B2", "about": "“Compounds that abrogate DNA-damage-induced cell cycle G2 checkpoint and/or augment anti-cancer activity of DNA-damaging treatments” (Canbas Co., Ltd., priority 2002, dated 2009)", "key": {"[1]": {"test_system": "HCT116 human colon carcinoma cells", "experiment": "G2 checkpoint induced by various anti-cancer agents in HCT116 cells (flow cytometry)", "type": "cell-based", "settings": "co-incubation with CBDC004 2, 10 or 50 μM, 24 hrs", "protocol": "(§1) Cell culture. A human T-cell leukemia-derived cell line, Jurkat, was cultured in RPMI 1640 media (Sigma) supplemented with 10% fetal calf serum (IBL: Immuno-Biological Laboratories, Gunma, Japan) at 37° C./5% CO2. A human colon cancer-derived cell line, HCT116, was cultured in McCoy's 5A Medium Modified (Gibco BRL) and supplemented with 10% fetal calf serum at 37° C./5% CO2. Normal human peripheral blood lymphocytes were separated by Ficoll-Paque® (Pharmacia) and cultured in the presence of 0.1 μg/ml PHA and 1 μg/ml IL-2.\n(§2) Cell-cycle analysis. […] Briefly, two million cells were resuspended and incubated in 300 μl Krishan's solution (0.1% Sodium citrate, 50 μg/ml PI, 20 μg/ml RNase A and 0.5% NP-40) for 1 hr at 4° C. and analyzed by flow cytometry using a FACScan™ flow cytometer (Beckton Dickinson, Mountain View, Calif.) with the CELLQuest™ program (Beckton Dickinson).\nDNA was stained with propidium iodine, and the cell cycle status of each cell was assessed by flow cytometry."}, "Jurkat cells": {"test_system": "Jurkat cells", "experiment": "G2 checkpoint abrogation in bleomycin-treated Jurkat cells (flow cytometry of DNA content)", "type": "cell-based, human", "settings": "Jurkat cells, bleomycin 40 μg/ml plus compound 0.2-50 μg/ml, 24 hrs", "protocol": "as §1, §2\nDNA of treated Jurkat cells was stained with propidium iodine, and the cell cycle status of each cell was assessed by flow cytometry.\nCBDC compounds 004, 402, 403, 404, 405, 406, 407, 408, 409, 410, and 411 were tested. Cells were harvested, DNA was stained with propidium iodine, and the percentage of cells in G2/M phase (% G2/M) was determined by flow cytometry.\nActivated normal T cells and leukemic T cells (Jurkat cells) were treated with agents to induce accumulation of cells at G2 or M phase, and the effect of CBDC402 on progression of cells through cell cycle checkpoints was measured. After treatments, cells were harvested, DNA was stained, and the cell cycle stage for each cell was determined by flow cytometry as described above. […] In another experiment, activated normal T cells received no treatment (control) or were treated with colchicine or a combination of […] and colchicine."}}}
{"smiles": "COc1ccc(OC(=O)c2ccc(Cl)cc2)cc1", "note": "[CBDC004, 4-Chloro-benzoic acid 4-methoxy-phenyl ester]", "values": [{"measurement": "effect on G2/M accumulation induced by bleomycin, adriamycin, camptothecin or cisplatin", "setting": "[1]", "value": "reduced the number of cells at G2/M"}, {"measurement": "abrogation of bleomycin-induced accumulation of G2/M cells (% G2/M)", "setting": "Jurkat cells", "value": "abrogated the G2 cell cycle checkpoint in bleomycin-treated Jurkat cells in a dose-dependent manner"}]}
